Values of other authors as cited in US5663151A, “Sulfated α-glycolipid derivatives as cell adhesion inhibitors” (Bristol-Myers Squibb Company, priority 1995, dated 1997).

Legend:
[1] = test system: P-selectin; settings: Larsen et al.; Erbe et al.; Aruffo et al.; cited from earlier work
[2] = test system: P-selectin; settings: cells grown in the presence of sodium selenate; cited from earlier work
[3] = test system: P-selectin; settings: Skinner et al.; cited from earlier work

Compound	P-selectin has been shown to bind [1]	other results
sialyl-Le^x	shown to bind	
O=[Se](=O)(O)O [sodium selenate]		binding of P-selectin to myeloid cell lines [2]: can be inhibited
fucoidan		inhibit P-selectin mediated adhesion [3]: inhibit P-selectin mediated adhesion
CC(=O)N[C@H]1C(O)O[C@H](CO)[C@@H](O[C@@H]2O[C@H](CO)[C@H](O)[C@H](O)[C@H]2O)[C@@H]1O[C@@H]1O[C@@H](C)[C@@H](O)[C@@H](O)[C@@H]1O (stereo partly shown) [Le^x]	shown to bind	
